Experimental data published in article PMC12399569, “Disruption of Spike Priming in Virus Entry: Tetrandrine as a Pan‐Coronavirus Inhibitor” (MedComm, 2025).

Assays:
Format in all cases: binding
HCoV-229E Spike = target: T1, HCoV-229E Spike (Human coronavirus 229E, UniProt P15423); assay: SPR (Reichert4, CM5 chip, Spike immobilised)
T1 construct: gene S
From the text: SPR (Reichert4, CM5 chip, Spike immobilised) on HCoV-229E Spike | we observed its interaction with the Spike proteins of various coronaviruses in vitro (Figure 5C)

HCoV-OC43 Spike = target: T2, HCoV-OC43 Spike (Human coronavirus OC43, UniProt P36334); assay: SPR (Reichert4, CM5 chip, Spike immobilised)
T2 construct: gene S
T2 sequence (P36334 14-1353): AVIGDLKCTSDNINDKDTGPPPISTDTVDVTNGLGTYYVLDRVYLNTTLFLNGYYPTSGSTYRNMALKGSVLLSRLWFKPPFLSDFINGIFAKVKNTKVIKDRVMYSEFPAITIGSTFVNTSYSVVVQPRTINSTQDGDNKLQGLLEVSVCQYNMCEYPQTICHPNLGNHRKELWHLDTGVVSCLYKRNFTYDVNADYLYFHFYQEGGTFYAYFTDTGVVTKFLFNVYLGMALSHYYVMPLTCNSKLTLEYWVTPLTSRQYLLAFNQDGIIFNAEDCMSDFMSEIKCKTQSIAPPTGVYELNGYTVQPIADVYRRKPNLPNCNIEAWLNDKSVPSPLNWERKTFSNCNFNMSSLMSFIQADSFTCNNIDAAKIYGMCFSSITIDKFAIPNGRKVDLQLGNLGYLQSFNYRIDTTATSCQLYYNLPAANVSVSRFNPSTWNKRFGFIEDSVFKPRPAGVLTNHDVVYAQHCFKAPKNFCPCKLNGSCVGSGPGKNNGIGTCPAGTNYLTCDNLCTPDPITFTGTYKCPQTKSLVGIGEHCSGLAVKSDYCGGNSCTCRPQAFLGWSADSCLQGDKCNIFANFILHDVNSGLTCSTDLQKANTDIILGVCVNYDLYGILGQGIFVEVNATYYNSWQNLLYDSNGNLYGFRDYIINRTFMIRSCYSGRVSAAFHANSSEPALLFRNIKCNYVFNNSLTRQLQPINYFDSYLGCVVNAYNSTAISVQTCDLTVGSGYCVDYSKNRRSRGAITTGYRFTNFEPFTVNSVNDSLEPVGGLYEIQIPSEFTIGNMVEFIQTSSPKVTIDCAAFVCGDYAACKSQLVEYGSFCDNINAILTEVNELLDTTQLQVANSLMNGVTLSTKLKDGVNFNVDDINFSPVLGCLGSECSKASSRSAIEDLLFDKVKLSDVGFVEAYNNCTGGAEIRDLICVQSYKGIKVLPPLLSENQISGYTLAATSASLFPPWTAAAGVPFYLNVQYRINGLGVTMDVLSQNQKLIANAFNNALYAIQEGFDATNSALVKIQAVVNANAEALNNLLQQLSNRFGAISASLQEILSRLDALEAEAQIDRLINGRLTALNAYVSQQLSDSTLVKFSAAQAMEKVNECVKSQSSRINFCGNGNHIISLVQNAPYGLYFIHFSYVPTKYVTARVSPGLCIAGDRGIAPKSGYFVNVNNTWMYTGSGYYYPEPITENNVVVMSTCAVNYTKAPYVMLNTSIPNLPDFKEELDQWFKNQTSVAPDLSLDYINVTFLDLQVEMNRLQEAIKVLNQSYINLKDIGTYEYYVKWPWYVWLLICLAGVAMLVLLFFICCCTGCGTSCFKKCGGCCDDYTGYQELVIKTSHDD
From the text: SPR (Reichert4, CM5 chip, Spike immobilised) on HCoV-OC43 Spike | we observed its interaction with the Spike proteins of various coronaviruses in vitro (Figure 5C)

hTMPRSS2 = target: T3, hTMPRSS2 (Homo sapiens, UniProt O15393); assay: SPR (CM5 chip, hTMPRSS2 immobilised)
T3 construct: gene TMPRSS2; purified protein; immobilised on CM5 chip
T3 sequence (O15393 whole entry): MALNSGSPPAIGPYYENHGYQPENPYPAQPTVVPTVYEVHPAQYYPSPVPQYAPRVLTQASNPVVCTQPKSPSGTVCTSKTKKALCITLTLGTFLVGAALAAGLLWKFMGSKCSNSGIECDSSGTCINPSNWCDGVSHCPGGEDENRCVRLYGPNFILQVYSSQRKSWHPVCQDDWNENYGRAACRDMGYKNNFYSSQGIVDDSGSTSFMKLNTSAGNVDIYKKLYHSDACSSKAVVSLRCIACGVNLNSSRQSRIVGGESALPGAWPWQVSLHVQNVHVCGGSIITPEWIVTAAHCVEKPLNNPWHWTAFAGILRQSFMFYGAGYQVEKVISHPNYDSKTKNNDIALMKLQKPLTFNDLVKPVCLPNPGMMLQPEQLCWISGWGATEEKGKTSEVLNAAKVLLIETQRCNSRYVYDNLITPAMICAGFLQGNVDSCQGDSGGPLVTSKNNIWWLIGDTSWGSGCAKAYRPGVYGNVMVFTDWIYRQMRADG
From the text: SPR (CM5 chip, hTMPRSS2 immobilised) on hTMPRSS2 | Through SPR assay, we validated that tetrandrine could also bind to TMPRSS2

T1 sequence (P15423 16-1173): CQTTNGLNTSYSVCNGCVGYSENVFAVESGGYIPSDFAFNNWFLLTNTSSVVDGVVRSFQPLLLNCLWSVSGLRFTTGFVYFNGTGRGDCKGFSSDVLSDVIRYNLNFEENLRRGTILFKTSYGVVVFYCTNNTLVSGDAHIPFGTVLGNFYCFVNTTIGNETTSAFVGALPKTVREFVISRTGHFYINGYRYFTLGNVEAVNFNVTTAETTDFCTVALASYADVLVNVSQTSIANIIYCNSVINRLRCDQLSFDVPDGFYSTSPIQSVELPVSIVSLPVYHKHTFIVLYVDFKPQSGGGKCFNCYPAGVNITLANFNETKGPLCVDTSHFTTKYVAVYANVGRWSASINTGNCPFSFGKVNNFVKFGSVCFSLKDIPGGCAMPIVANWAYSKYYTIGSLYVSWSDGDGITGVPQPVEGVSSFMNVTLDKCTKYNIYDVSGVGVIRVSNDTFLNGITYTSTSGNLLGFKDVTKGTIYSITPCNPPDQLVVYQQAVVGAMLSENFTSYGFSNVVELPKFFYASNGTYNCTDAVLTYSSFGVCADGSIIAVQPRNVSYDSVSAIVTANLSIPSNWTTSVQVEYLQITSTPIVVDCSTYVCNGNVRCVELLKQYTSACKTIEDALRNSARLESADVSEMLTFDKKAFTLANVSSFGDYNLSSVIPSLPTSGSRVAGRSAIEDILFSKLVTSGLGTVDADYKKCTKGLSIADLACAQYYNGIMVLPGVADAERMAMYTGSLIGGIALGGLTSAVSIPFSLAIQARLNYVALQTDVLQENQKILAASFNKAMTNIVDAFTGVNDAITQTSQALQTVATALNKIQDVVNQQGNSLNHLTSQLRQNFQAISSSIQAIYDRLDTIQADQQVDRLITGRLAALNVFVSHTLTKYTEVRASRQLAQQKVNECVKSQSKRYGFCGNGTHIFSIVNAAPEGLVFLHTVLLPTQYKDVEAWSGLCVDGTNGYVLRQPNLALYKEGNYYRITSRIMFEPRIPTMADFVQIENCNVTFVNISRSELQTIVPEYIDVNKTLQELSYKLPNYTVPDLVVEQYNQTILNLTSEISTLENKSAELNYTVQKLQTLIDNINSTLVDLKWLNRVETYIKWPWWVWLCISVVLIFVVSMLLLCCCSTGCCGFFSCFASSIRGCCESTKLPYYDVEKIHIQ

## COc1ccc2cc1Oc1ccc(cc1)C[C@H]1c3cc(c(OC)cc3CCN1C)Oc1c(OC)c(OC)cc3c1[C@H](C2)N(C)CC3 [tetrandrine]
HCoV-229E Spike
  Kd: ~0.53 µM
HCoV-OC43 Spike
  Kd: ~21.3 µM
hTMPRSS2
  Kd: 4.59 µM
